Holding throughout (format): in vivo
Holding throughout (set-up): key: 5=total damage to plant; 0=no damage to plant

In test [1] the test system is Setaria faberi (SETFA). Briefly: Pre-emergence herbicidal activity, Setaria faberi. The conditions noted are these: 1000 g/ha, evaluated after 13 days, Test 1b. The method, boiled down:
(§1)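 Pots of seeds were sprayed one day after sowing (pre-emergence) with compound in acetone/water (50:50) plus 0.5% Tween 20, then grown in a glasshouse at 24/16 °C day/night, 14 h light, 65% humidity. Damage scored 0–5 (5 = total damage) after 13 days.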

Test [2] relates to Zea Mays (ZEAMX). Nature of the test: Pre-emergence herbicidal activity, Zea Mays. The note with it: 1000 g/ha, evaluated after 13 days, Test 1b. As for the experimental part:
(§2) Seeds of a variety of test species were sown in standard soil in pots: Triticum aestivium (TRZAW), Avena fatua (AVEFA), Alopecurus myosuroides (ALOMY), Echinochloa crus-galli (ECHCG), Lolium perenne (LOLPE), Zea Mays (ZEAMX), Abutilon theophrasti (ABUTH), Amaranthus retroflexus (AMARE) and Setaria faberi (SETFA). After cultivation for one day (pre-emergence) under controlled conditions in a glasshouse (at 24/16° C., day/night; 14 hours light; 65% humidity), the plants were sprayed with an aqueous spray solution derived from the formulation of the technical active ingredient in acetone/water (50:50) solution containing 0.5% Tween 20 (polyoxyethelyene sorbitan monolaurate, CAS RN 9005-64-5). The test plants were then grown in a glasshouse under controlled conditions (at 24/16°, day/night; 14 hours light; 65% humidity) and watered twice daily. After 13 days, the test was evaluated (5=total damage to plant; 0=no damage to plant).

Test [3] has as its system Echinochloa crus-galli (ECHCG). Nature of the test: Pre-emergence herbicidal activity, Echinochloa crus-galli. The note with it: 1000 g/ha, evaluated after 13 days, Test 1b. In short, it runs like this:
as §1

Test [4] relates to Lolium perenne (LOLPE). Briefly: Post-emergence herbicidal activity, Lolium perenne. The conditions noted are these: 1000 g/ha, evaluated after 13 days, Test 2b. The method, boiled down:
(§3)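 Post-em, 8 d plants, pots; acetone:water 1:1 + 0.5% Tween 20 spray; 24/16 °C, 14 h photoperiod, 65% RH; 13 d readout, 0–5 phytotoxicity scale.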

The test system of test [5] is Abutilon theophrasti (ABUTH). Briefly: Post-emergence herbicidal activity, Abutilon theophrasti. The conditions noted are these: 1000 g/ha, evaluated after 13 days, Test 2b. The procedure: (§4) Seeds of a variety of test species were sown in standard soil in pots: Triticum aestivium (TRZAW), Avena fatua (AVEFA), Alopecurus myosuroides (ALOMY), Echinochloa crus-galli (ECHCG), Lolium perenne (LOLPE), Zea Mays (ZEAMX), Abutilon theophrasti (ABUTH), Amaranthus retroflexus (AMARE) and Setaria faberi (SETFA). After 8 days cultivation (post-emergence) under controlled conditions in a glasshouse (at 24/16° C., day/night; 14 hours light; 65% humidity), the plants were sprayed with an aqueous spray solution derived from the formulation of the technical active ingredient in acetone/water (50:50) solution containing 0.5% Tween 20 (polyoxyethelyene sorbitan monolaurate, CAS RN 9005-64-5). The test plants were then grown in a glasshouse under controlled conditions (at 24/16° C., day/night; 14 hours light; 65% humidity) and watered twice daily. After 13 days, the test was evaluated (5=total damage to plant; 0=no damage to plant).

The subject of test [6] is Lolium perenne (LOLPE). Briefly: Pre-emergence herbicidal activity, Lolium perenne. The conditions noted are these: 1000 g/ha, evaluated after 13 days, Test 1b. The method, boiled down: as §1
Test [7] has as its system Amaranthus retroflexus (AMARE). Nature of the test: Post-emergence herbicidal activity, Amaranthus retroflexus. The conditions noted are these: 1000 g/ha, evaluated after 13 days, Test 2b. As for the experimental part:
as §4

Test [8] relates to Amaranthus retroflexus (AMARE). Briefly: Pre-emergence herbicidal activity, Amaranthus retroflexus. The conditions noted are these: 1000 g/ha, evaluated after 13 days, Test 1b. The procedure:
as §2

For test [9], the system named is Setaria faberi (SETFA). Briefly: Post-emergence herbicidal activity, Setaria faberi. The note with it: 1000 g/ha, evaluated after 13 days, Test 2b. In short, it runs like this: as §3
The subject of test [10] is Abutilon theophrasti (ABUTH). Nature of the test: Pre-emergence herbicidal activity, Abutilon theophrasti. The note with it: 1000 g/ha, evaluated after 13 days, Test 1b. The procedure:
as §2

Test [11] relates to Zea Mays (ZEAMX). Nature of the test: Post-emergence herbicidal activity, Zea Mays. The conditions noted are these: 1000 g/ha, evaluated after 13 days, Test 2b. The procedure:
as §4

In test [12] the test system is Echinochloa crus-galli (ECHCG). Briefly: Post-emergence herbicidal activity, Echinochloa crus-galli. The conditions noted are these: 1000 g/ha, evaluated after 13 days, Test 2b. In short, it runs like this:
as §3

Regarding `COc1cncc(-c2ccc(N(C)C(=O)OC(C)(C)C)c(C(F)(F)F)n2)c1` [Compound B21], the “SETFA damage score (0-5)” value in [1] turned out to be 1; in test [9], 3. Further, the “ZEAMX damage score (0-5)” value in test [2] amounted to 0; in test [11], 2. Besides, the entries for the “ECHCG damage score (0-5)” value in [3] and in test [12] were 0 and 2, respectively. Besides, the results for the “LOLPE damage score (0-5)” value in [4] and in test [6] were 1 and 0, respectively. Further, the “ABUTH damage score (0-5)” value in [5] came to 0; in test [10], 1. Further, the “AMARE damage score (0-5)” value worked out at 0 in [7] and 1 in test [8].
Turning to `CN(C(=O)OC(C)(C)C)c1ccc(-c2cncc(C(F)(F)F)c2)nc1C(F)(F)F` [Compound B17], the “SETFA damage score (0-5)” value is 0 in [1] and 1 in test [9]. Further, the “ZEAMX damage score (0-5)” value in test [2] was determined as 0; in [11], 1. Besides, the “ECHCG damage score (0-5)” value is recorded as 0 in test [3] and 1 in test [12]. The “LOLPE damage score (0-5)” value in [4] and in test [6] was 0 in each case. Further, the “ABUTH damage score (0-5)” value in test [5] and in test [10] was 0 each time. Also, the “AMARE damage score (0-5)” value in test [7] and in test [8] was 0 each time.
As for `CCN(C(=O)OC(C)(C)C)c1ccc(-c2cncc(F)c2)nc1C(F)(F)F` [Compound B14], the “SETFA damage score (0-5)” value amounted to 0 in test [1] and 4 in test [9]. Besides, the “ZEAMX damage score (0-5)” value in test [2] was found to be 0; in test [11], 4. For the same compound, the results for the “ECHCG damage score (0-5)” value in test [3] and in [12] were 0 and 2, respectively. Besides, the “LOLPE damage score (0-5)” value in test [4] was 1; in test [6] it was 0. Also, the entries for the “ABUTH damage score (0-5)” value in test [5] and in test [10] were 0 and 4, respectively. Further, the “AMARE damage score (0-5)” value in test [7] and in [8] was 0 each time.
With `CC(C)(C)OC(=O)Nc1ccc(-c2cncc(F)c2)nc1C(F)(F)F` [Compound B30, tert-butyl N-[6-(5-fluoro-3-pyridyl)-2-(trifluoromethyl)-3-pyridyl]carbamate], the “SETFA damage score (0-5)” value in test [1] was determined as 4; in test [9] it was 5. Besides, the “ZEAMX damage score (0-5)” value in test [2] and in test [11] was 5 throughout. The “ECHCG damage score (0-5)” value in [3] came out at 3; in [12] it was 5. For the same compound, the entries for the “LOLPE damage score (0-5)” value in test [4] and in test [6] were 4 and 1, respectively. The “ABUTH damage score (0-5)” value in test [5] and in [10] was 0 in each case. The “AMARE damage score (0-5)” value in test [7] came to 0; in [8], 2.
`Cc1cncc(-c2ccc(N(C)C(=O)OC(C)(C)C)c(C(F)(F)F)n2)c1` [Compound B18]: the “SETFA damage score (0-5)” value was found to be 1 in test [1] and 3 in test [9]. For the same compound, the results for the “ZEAMX damage score (0-5)” value in test [2] and in test [11] were 0 and 2, respectively. For the same compound, the “ECHCG damage score (0-5)” value was found to be 0 in test [3] and 2 in test [12]. The “LOLPE damage score (0-5)” value in [4] is reported as 1; in test [6] it was 0. Moreover, the “ABUTH damage score (0-5)” value came to 0 in [5] and 1 in test [10]. Besides, the “AMARE damage score (0-5)” value in [7] turned out to be 0; in [8], 1.
With `CN(C(=O)OC(C)(C)C)c1ccc(-c2cccnc2)nc1C(F)(F)F` [Compound B22], the “SETFA damage score (0-5)” value in test [1] and in test [9] was 4 each time. In addition, the “ZEAMX damage score (0-5)” value in test [2] is recorded as 0; in test [11], 2. For the same compound, the “ECHCG damage score (0-5)” value in test [3] stood at 3; in test [12] it was 4. Besides, the figures for the “LOLPE damage score (0-5)” value in test [4] and in [6] were 3 and 1, respectively. The “ABUTH damage score (0-5)” value in [5] worked out at 0; in [10] it was 1. The entries for the “AMARE damage score (0-5)” value in test [7] and in test [8] were 0 and 1, respectively.
As for `Cc1nc(-c2cncc(C#N)c2)ccc1NC(=O)OC(C)(C)C` [Compound B20], the figures for the “SETFA damage score (0-5)” value in [1] and in test [9] were 4 and 5, respectively. For the same compound, the results for the “ZEAMX damage score (0-5)” value in [2] and in test [11] were 5 and 4, respectively. For the same compound, the results for the “ECHCG damage score (0-5)” value in test [3] and in test [12] were 5 and 4, respectively. For the same compound, the figures for the “LOLPE damage score (0-5)” value in test [4] and in test [6] were 3 and 1, respectively. Further, the “ABUTH damage score (0-5)” value in test [5] and in test [10] was 0 each time. Further, the “AMARE damage score (0-5)” value in [7] and in [8] was 1 throughout.
In the case of `COc1cncc(-c2ccc(NC(=O)OC(C)(C)C)c(C)n2)c1` [Compound B23], the “SETFA damage score (0-5)” value in test [1] was 4; in test [9], 3. The “ZEAMX damage score (0-5)” value is reported as 1 in test [2] and 5 in test [11]. For the same compound, the “ECHCG damage score (0-5)” value in [3] came out at 1; in test [12], 2. In addition, the entries for the “LOLPE damage score (0-5)” value in [4] and in test [6] were 2 and 1, respectively. Further, the “ABUTH damage score (0-5)” value in [5] and in test [10] was 1 in each case. The “AMARE damage score (0-5)” value in [7] and in [8] was 1 each time.
As to `CC(C)OC(=O)Nc1ccc(-c2cncc(F)c2)nc1C(F)(F)F` [Compound B16, isopropyl N-[6-(5-fluoro-3-pyridyl)-2-(trifluoromethyl)-3-pyridyl]carbamate], the “SETFA damage score (0-5)” value in test [1] was 4; in test [9], 5. For the same compound, the “ZEAMX damage score (0-5)” value in test [2] and in test [11] was 5 throughout. For the same compound, the “ECHCG damage score (0-5)” value came to 3 in test [3] and 4 in [12]. For the same compound, the “LOLPE damage score (0-5)” value in [4] was 3; in test [6], 1. Moreover, the “ABUTH damage score (0-5)” value in test [5] and in test [10] was 0 each time. The “AMARE damage score (0-5)” value in [7] and in test [8] was 0 in each case.
Regarding `Cc1nc(-c2cccnc2)ccc1NC(=O)OC(C)(C)C` [Compound B25], the “SETFA damage score (0-5)” value in test [1] and in [9] was 5 in each case. Moreover, the entries for the “ZEAMX damage score (0-5)” value in test [2] and in test [11] were 3 and 4, respectively. The “ECHCG damage score (0-5)” value in test [3] is listed as 2; in test [12] it was 3. Also, the “LOLPE damage score (0-5)” value in [4] was determined as 4; in test [6] it was 2. Besides, the “ABUTH damage score (0-5)” value in test [5] came out at 2; in test [10], 1. The “AMARE damage score (0-5)” value is recorded as 2 in [7] and 1 in test [8].

Values taken from patent US20210127673A1, “HERBICIDES” (SYNGENTA PARTICIPATIONS AG, priority 2016, published 2021).
